Assay results reported in US20250268261A1, “METHODS FOR THE CONTROL OF POA ANNUA IN WARM SEASON TURFGRASS USING THIENCARBAZONE-METHYL” (Discovery Purchaser Corporation, priority 2024, published 2025).

How the values were obtained:
Type in all cases: in vivo
Poa annua [1] = experiment: Field trial, bermudagrass stands infested with Poa annua, Blacksburg, Virginia, autumn 2022; details: FIG. 10
Source text: (§1) As used herein, the term “Abbott's percentage reduction,” in all of its forms, refers to a measure of percentage control relative to the population in an untreated control stand of turfgrass. Rather than representing a simple percentage control on a per treatment basis, the Abbott's percentage reduction measure accounts for naturally occurring shifts in the target population and limits rating bias over time. Abbott's percentage reduction may be represented by the following
Stands of bermudagrass infested with Poa annua were treated with thiencarbazone-methyl (TCM) at different stages of Poa annua development and under different climatological conditions in a set of trials conducted during the autumn of 2022 in Blacksburg, Virginia. Stands of bermudagrass containing Poa annua in a pre-emergent growth phase were treated with thiencarbazone-methyl (TCM) on September 14th. Stands of bermudagrass containing Poa annua in an early post-emergent growth state characterized by having two or fewer tillers were treated with thiencarbazone-methyl (TCM) on October 5th. Stands of bermudagrass containing Poa annua in a late post-emergent growth state characterized by having more than two tillers were treated with thiencarbazone-methyl (TCM) on November 9th. The Blacksburg trial data is shown in FIG. 10 while FIG. 12 provides the corresponding environmental data for Blacksburg during the trials. The Days After Application “DAA” shown in FIG. 10 refers to the days after thiencarbazone-methyl (TCM) was applied to the stands of bermudagrass containing Poa annua in a pre-emergent growth phase on Sep. 14, 2022. The horizontal line in FIG. 12 represents the temperature (66 degrees Fahrenheit) at which peak Poa annua germination has been observed. […] However, treatment of bermudagrass stands containing Poa annua at a later growth stage fell well below the minimum commercially acceptable 80% Abbott control threshold effectiveness.

Poa annua [2] = experiment: Field trial, bermudagrass stands infested with Poa annua, Clayton, North Carolina, autumn 2022; details: FIG. 11
Source text: as §1
Stands of bermudagrass infested with Poa annua were treated with thiencarbazone-methyl (TCM) at different stages of Poa annua development and under different climatological conditions in a set of trials conducted during the autumn of 2022 in Clayton, North Carolina. Stands of bermudagrass containing Poa annua in a pre-emergent growth phase were treated with thiencarbazone-methyl (TCM) on September 23rd. Stands of bermudagrass containing Poa annua in an early post-emergent growth state characterized by having two or fewer tillers were treated with thiencarbazone-methyl (TCM) on November 21st. Stands of bermudagrass containing Po annua in a late post-emergent growth state characterized by having more than two tillers were treated with thiencarbazone-methyl (TCM) on December 8th. The Clayton trial data is shown in FIG. 11 while FIG. 13 provides the corresponding environmental data for Clayton during the trials. […]

Poa annua [3] = experiment: Single application to warm season turfgrass according to the disclosed methods (summary statement); details: early post-emergence, for at least 120 days following application

## COC(=O)c1csc(C)c1S(=O)(=O)NC(=O)n1nc(OC)n(C)c1=O [thiencarbazone-methyl, methyl 4-[(3-methoxy-4-methyl-5-oxo-1,2,4-triazole-1-carbonyl)sulfamoyl]-5-methylthiophene-3-carboxylate]
Poa annua [1]; 15 g/ha, early post-emergent growth phase (two or fewer tillers, treated October 5), 77, 91 and 148 days after the pre-emergence treatment application
  Abbott control threshold effectiveness: ≥ 80%
Poa annua [1]; 30 g/ha, early post-emergent growth phase (two or fewer tillers, treated October 5), 77, 91 and 148 days after the pre-emergence treatment application
  Abbott control threshold effectiveness: ≥ 80%
Poa annua [1]; Poa annua at a later growth stage (more than two tillers, treated November 9)
  Abbott control threshold effectiveness: < 80%
Poa annua [2]; 30 g/ha, early post-emergent growth phase (two or fewer tillers, treated November 21), 117 days after the pre-emergence treatment application
  Abbott control threshold effectiveness: ≥ 80%
Poa annua [2]; Poa annua at a later growth stage (more than two tillers, treated December 8)
  Abbott control threshold effectiveness: < 80%
Poa annua [3]
  reduction in Poa annua population: ≥ 80%
